Tests used:
[1] = target: GTP binding domain of Ras; conditions: literature, kinetic and filter binding measurements with radiolabeled GDP and GTP; cited from earlier work
[2] = tested on: MIA-PACA2 pancreatic cancer cell lines; test: Cell proliferation assay (CellTiter 96 AQueous One); format: cell-based; conditions: Homo sapiens, MIA PaCa-2; for IC50: MIA-PACA2, compound tested under both conditions, which assay gave the IC50 is not stated; for inhibition at 30 µM: MIA-PACA2
[3] = tested on: MIA-PACA2 pancreatic cancer cell lines; test: Cell proliferation assay, alternate assay conditions (DAPI fluorescence); format: cell-based; conditions: Homo sapiens, MIA PaCa-2; for inhibition at 10 µM: * = tested at 10 μM, alternate conditions, MIA-PACA2; for IC50: MIA-PACA2, same assay as the % inhibition (alternate conditions)
Method in brief: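 MIA-PACA2 cells were treated the day after plating with 10 μM compound or serial dilutions for IC50 (0.3% DMSO, 10% FBS) for 4 days at 37 °C. Cells were fixed in acetone-methanol and stained with DAPI (1 μg/ml), and fluorescence was read at 358/461 nm. Inhibition was calculated taking the No Serum cell value as 100%.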

Row | Compound | inhibition at 10 µM [3] [%] | other results
1 | Nc1nc2c(ncn2[C@@H]2O[C@H](COP(=O)(O)OP(=O)(O)O)[C@@H](O)[C@H]2O)c(=O)[nH]1 [GDP] |  | affinity for the GTP binding domain of Ras [1]: single to double digit picomolar
2 | COCc1ccc(-c2csc3c(O)nc(-c4ccccn4)nc23)cc1F [drawing 1722] | 76 to 100 | IC50 [2]: < 100 nM; inhibition at 30 µM [2]: 76 to 100%
3 | Oc1nc(-c2ccccn2)nc2c(-c3cccc(C(F)(F)F)c3)csc12 [drawing 1749] | 76 to 100 | IC50 [2]: 100 to 500 nM; inhibition at 30 µM [2]: 76 to 100%
4 | CC(C)COc1ccc(-c2csc3c(O)nc(-c4ccccn4)nc23)cn1 [drawing 1753] | 76 to 100 | IC50 [2]: 501 to 1000 nM; inhibition at 30 µM [2]: 76 to 100%
5 | Oc1nc(-c2ccccn2)nc2c(-c3ccccn3)csc12 [drawing 1772] | 76 to 100 | IC50 [2]: > 1000 nM; inhibition at 30 µM [2]: 76 to 100%
6 | COCCNc1nc(-c2nccn2C)nc2sc(C)c(-c3ccccc3)c12 [drawing 1886] | 76 to 100 | IC50 [3]: 501 to 1000 nM
7 | COCCNc1nc(-c2cn(C)cn2)nc2sc(C)c(-c3ccccc3)c12 [drawing 1887] | 76 to 100 | 
8 | COCCNc1nc(-c2nccn2C)nc2sc(-c3cccc(OC)c3)c(-c3ccccc3)c12 [drawing 1888] | 76 to 100 | 
9 | CC(C)COc1ccc(-c2c(-c3ccccc3)sc3c(O)nc(-c4nccn4C)nc23)cn1 [drawing 1889] | 76 to 100 | IC50 [3]: 100 to 500 nM
10 | Cn1ccnc1-c1nc(O)c2sc(-c3ccccc3)c(-c3ccccc3)c2n1 [drawing 1890] | 51 to 75 | 
11 | COCCNc1nc(-c2nccn2C)nc2sc(-c3ccccc3)c(-c3ccc(OC)cc3)c12 [drawing 1891] | 76 to 100 | IC50 [3]: 501 to 1000 nM
12 | COCCNc1nc(-c2nccn2C)nc2sc(C3CCOCC3)c(-c3ccccc3)c12 [drawing 1892] | 76 to 100 | 
13 | COCCNc1nc(-c2cccc(N)n2)nc2sc(-c3ccccc3)c(-c3ccccc3)c12 [drawing 1893] | 76 to 100 | 
14 | Cn1ccnc1-c1nc(O)c2sc(-c3ccccc3)c(-c3cccc(C(F)(F)F)c3)c2n1 [drawing 1894] | 25 to 50 | 
15 | COc1ccc(-c2c(-c3ccccc3)sc3c(O)nc(-c4nccn4C)nc23)cn1 [drawing 1895] | 76 to 100 | IC50 [3]: 501 to 1000 nM
16 | Cc1sc2c(O)nc(-c3nccn3C)nc2c1-c1ccccc1 [drawing 1896] | 76 to 100 | 
17 | Cn1ccnc1-c1nc(O)c2sc(-c3ccccc3)c(-c3ccccc3Cl)c2n1 [drawing 1897] | 76 to 100 | IC50 [3]: 100 to 500 nM
18 | COCCNc1nc(-c2nccn2C)nc2sc(-c3ccccc3)c(-c3ccncc3)c12 [drawing 1898] | 76 to 100 | 
19 | COCCNc1nc(-c2nccn2C)nc2sc(-c3ccc(OC)cc3)c(-c3ccccc3)c12 [drawing 1899] | 76 to 100 | IC50 [3]: 100 to 500 nM
20 | Cn1ccnc1-c1nc(O)c2scc(-c3cccc(C(F)(F)F)c3)c2n1 [drawing 1900] | 76 to 100 | IC50 [3]: > 1000 nM
21 | Cc1sc2c(O)nc(-c3nccn3C)nc2c1-c1cccc(C(F)(F)F)c1 [drawing 1901] | 76 to 100 | IC50 [3]: 100 to 500 nM
22 | Cc1sc2c(O)nc(-c3nccn3C)nc2c1-c1ccc(OCC(C)C)nc1 [drawing 1902] | 76 to 100 | 

Row | Compound | inhibition at 10 µM [3] [%] | other results
23 | COc1ccc(-c2c(C)sc3c(O)nc(-c4nccn4C)nc23)cn1 [drawing 1903] | 25 to 50 | 
24 | Cc1sc2c(O)nc(-c3nccn3C)nc2c1-c1ccccc1Cl [drawing 1904] | 76 to 100 | IC50 [3]: 100 to 500 nM
25 | Cn1ccnc1-c1nc(O)c2scc(-c3cccc(OC(F)(F)F)c3)c2n1 [drawing 1905] | 76 to 100 | IC50 [3]: 100 to 500 nM
26 | Cn1cnc(-c2nc(O)c3scc(-c4cccc(C(F)(F)F)c4)c3n2)c1 [drawing 1906] | 76 to 100 | 
27 | CC(C)COc1ccc(-c2csc3c(O)nc(-c4cn(C)cn4)nc23)cn1 [drawing 1907] | 76 to 100 | 
28 | Cn1cnc(-c2nc(O)c3scc(-c4cccc(OC(F)(F)F)c4)c3n2)c1 [drawing 1908] | 76 to 100 | 
29 | Oc1nc(-c2ccncn2)nc2c(-c3cccc(C(F)(F)F)c3)csc12 [drawing 1909] | 76 to 100 | IC50 [3]: > 1000 nM
30 | Oc1nc(-c2ncccn2)nc2c(-c3cccc(C(F)(F)F)c3)csc12 [drawing 1910] | 76 to 100 | 
31 | CC(C)Oc1ccc(-c2csc3c(O)nc(-c4nccn4C)nc23)cc1F [drawing 1911] | 76 to 100 | 
32 | Cc1sc2c(O)nc(-c3nccn3C)nc2c1-c1ccc(OC(C)C)c(F)c1 [drawing 1912] | 76 to 100 | 
33 | CC(C)Oc1ccc(-c2c(-c3ccccc3)sc3c(O)nc(-c4nccn4C)nc23)cc1F [drawing 1913] | 76 to 100 | 
34 | CC(C)COc1ccc(-c2csc3c(O)nc(-c4nccn4C)nc23)cn1 [drawing 1914] | 76 to 100 | IC50 [3]: 100 to 500 nM
35 | COc1ccc(-c2csc3c(O)nc(-c4nccn4C)nc23)cn1 [drawing 1915] | 76 to 100 | 
36 | Cn1ccnc1-c1nc(O)c2scc(-c3ccccc3)c2n1 [drawing 1916] | 76 to 100 | 
37 | Cn1ccnc1-c1nc(O)c2scc(-c3ccccc3Cl)c2n1 [drawing 1917] | 76 to 100 | 
38 | Cn1ccnc1-c1nc(O)c2scc(-c3ccc(F)cc3F)c2n1 [drawing 1918] | 76 to 100 | 
39 | Cn1ccnc1-c1nc(O)c2scc(-c3cccc(Cl)c3)c2n1 [drawing 1919] | 76 to 100 | 
40 | COC(C)(C)c1ccc(-c2csc3c(O)nc(-c4nccn4C)nc23)cc1 [drawing 1920] | 76 to 100 | 
41 | Cn1ccnc1-c1nc(O)c2scc(-c3ccc(C(C)(C)C)cc3)c2n1 [drawing 1921] | 76 to 100 | 
42 | COCCNc1nc(-c2ccccn2)nc2sc(-c3ccccc3)c(-c3ccccn3)c12 [drawing 1922] | 76 to 100 | 
43 | Cc1sc2c(O)nc(-c3nccn3C)nc2c1-c1ccc(F)cc1F [drawing 1923] | 76 to 100 | 
44 | COCCNc1nc(-c2nccn2C)nc2sc(-c3ccccc3)c(-c3ccccn3)c12 [drawing 1924] | 76 to 100 | IC50 [3]: 501 to 1000 nM

Reference: patent US10940139B2, “Compounds that interact with the Ras superfamily for the treatment of cancers, inflammatory diseases, rasopathies, and fibrotic disease” (Shy Therapeutics LLC, priority 2017, dated 2021)
